Patent US12459951B2, “Compounds that interact with RAS superfamily proteins for treatment of cancers, inflammatory diseases, rasopathies, and fibrotic disease” (SHY Therapeutics, LLC, priority 2022, dated 2025)
Where a name gives a salt, the structure may show the parent alone.

Each compound was assayed on JNK phosphorylation (assay: JNK Activation Assay (western blot), Panc-1). Conditions: at 10 μM, Panc-1 pancreatic cancer cell line; starred symbols = activation.
Format: cell-based, human
How it was run: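 KRas G12C Panc-1 cells treated 6 h at 37 °C with compound at 10 μM (0.3% DMSO), or serial dilutions for IC50. In Method 1 cells were serum-starved overnight (0.5% FBS) then stimulated with 1.5 ng/ml EGF for 15 min; Method 2 used 10% FBS without stimulation. Phospho-JNK (Thr183/Tyr185) measured by western blot.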

Compound	% inh of JNK in Panc-1
COC[C@@H]1CC[C@@H]1CNc1nc(-c2nccn2C)nn2cc(-c3ccn(C(C)C)n3)c(C)c12 (racemic) [Compound 3, rac 6-(1-Isopropyl-1H-pyrazol-3-yl)-N-(((1S,2R)-2-(methoxymethyl)cyclobutyl)methyl)-5-methyl-2-(1-methyl-1H-imidazol-2-yl)pyrrolo[2,1-f][1,2,4]triazin-4-amine]	H* (H* ≥ 100% activation)
COC1CCCN(c2nc(-c3nccn3C)nn3cc(-c4ccn(C(C)C)n4)c(C)c23)C1 (racemic) [Compound 4, rac 6-(1-Isopropyl-1H-pyrazol-3-yl)-5-methyl-2-(1-methyl-1H-imidazol-2-yl)-4-(3-(oxo-γ6-methyl)piperidin-1-yl)pyrrolo[2,1-f][1,2,4]triazine]	G* (G* = 75-99% activation)
CO[C@H]1CC[C@@H](Nc2nc(-c3nccn3C)nn3cc(-c4ccn(C(C)C)n4)c(-c4ccccc4)c23)C1 (racemic) [Compound 18, rac 6-(1-Isopropyl-1H-pyrazol-3-yl)-N-((1R,3S)-3-methoxycyclopentyl)-2-(1-methyl-1H-imidazol-2-yl)-5-phenylpyrrolo[2,1-f][1,2,4]triazin-4-amine hydrochloride]	F* (F* = 31-74% activation)
COCC1CCN(c2nc(-c3nccn3C)nn3cc(-c4ccn(C(C)C)n4)c(-c4ccccc4)c23)C1.Cl (racemic) [Compound 19, rac 6-(1-Isopropyl-1H-pyrazol-3-yl)-4-(3-(methoxymethyl)pyrrolidin-1-yl)-2-(1-methyl-1H-imidazol-2-yl)-5-phenylpyrrolo[2,1-f][1,2,4]triazine hydrochloride salt]	F* (F* = 31-74% activation)
COC[C@@H]1CC[C@@H]1CNc1nc(-c2nccn2C)nn2cc(-c3ccn(C(C)C)n3)c(-c3ccccc3)c12 (racemic) [Compound 20, rac 6-(1-Isopropyl-1H-pyrazol-3-yl)-N-(((1S,2R)-2-(methoxymethyl)cyclobutyl)methyl)-2-(1-methyl-1H-imidazol-2-yl)-5-phenylpyrrolo[2,1-f][1,2,4]triazin-4-amine]	H* (H* ≥ 100% activation)
COC1CCCN(c2nc(-c3nccn3C)nn3cc(-c4ccn(C(C)C)n4)c(-c4ccccc4)c23)C1 (racemic) [Compound 21, rac 6-(1-Isopropyl-1H-pyrazol-3-yl)-4-(3-methoxypiperidin-1-yl)-2-(1-methyl-1H-imidazol-2-yl)-5-phenylpyrrolo[2,1-f][1,2,4]triazine]	H* (H* ≥ 100% activation)
COc1cccc(-c2cn3nc(-c4nccn4C)nc(N[C@@H]4CC[C@@H](OC)C4)c3c2-c2ccccc2)c1Cl.Cl (racemic) [Compound 34, rac 6-(2-Chloro-3-methoxyphenyl)-N-((1R,3R)-3-methoxycyclopentyl)-2-(1-methyl-1H-imidazol-2-yl)-5-phenylpyrrolo[2,1-f][1,2,4]triazin-4-amine hydrochloride]	H (H = 100% inhibition)
COc1cccc(Nc2nc(-c3nccn3C)nn3cc(-c4ccn(C(C)C)n4)c(C)c23)n1 [Compound 7, 6-(1-Isopropyl-1H-pyrazol-3-yl)-N-(6-methoxypyridin-2-yl)-5-methyl-2-(1-methyl-1H-imidazol-2-yl)pyrrolo[2,1-f][1,2,4]triazin-4-amine]	H* (H* ≥ 100% activation)
CC(C)n1ccc(-c2cn3nc(-c4nccn4C)nc(O)c3c2-c2ccccc2)n1 [Compound 17, 6-(1-Isopropyl-1H-pyrazol-3-yl)-2-(1-methyl-1H-imidazol-2-yl)-5-phenylpyrrolo[2,1-f][1,2,4]triazin-4-ol]	0 (0 = 0% inhibition)
COc1cc(Nc2nc(-c3nccn3C)nn3cc(-c4ccn(C(C)C)n4)c(-c4ccccc4)c23)ncn1 [Compound 22, 6-(1-Isopropyl-1H-pyrazol-3-yl)-N-(6-methoxypyrimidin-4-yl)-2-(1-methyl-1H-imidazol-2-yl)-5-phenylpyrrolo[2,1-f][1,2,4]triazin-4-amine]	H* (H* ≥ 100% activation)
